Measured values: patent publication EP4725505A1, “PROPHYLACTIC AND/OR THERAPEUTIC AGENT FOR SKIN DISORDER ASSOCIATED WITH HISTONE DEACETYLASE 4 ABNORMALITY” (National University Corporation Kobe University, priority 2023, dated 2025)

Test system: HDAC4
Assay: Improving action on expression of HDAC4 in UV-B-irradiated XP-A-iMCs (RT-PCR)
Assay type: cell-based, human
Details: XP-A-iMCs irradiated with high-dose (150 J/m^2) UV-B, compound then added to cell medium, cultured for 24 hours, DMSO control
Description: The XP-A-iMCs were seeded into a 60-millimeter dish, and were irradiated with high-dose (150 J/m^2) UV-B when the XP-A-iMCs became about 70% confluent. […] After that, the expression of HDAC4 was recognized by using a RT-PCR method.
The XP-A-iMCs were seeded into a 60-millimeter dish, and were irradiated with high-dose (150 J/m^2) UV-B when the XP-A-iMCs became about 70% confluent.

CC1=NN(c2ccc(C(=O)O)cc2)C(=O)C1=Cc1ccc(-c2cc(C)c(C)cc2[N+](=O)[O-])o1 [C-646]
expression of HDAC4: significantly recovered
